Reference: paper PMC12045974, “T cell toxicity induced by tigecycline binding to the mitochondrial ribosome” (Nature Communications, 2025)
Several values for one entry are separate records, joined by “and”; a condition that tells them apart may be missing. Identical values can stand only once.

Assays:
[1] = test system: 55S mitochondrial ribosomes (mitoribosomes) from Jurkat T cells; assay: Single-particle cryo-EM of mitoribosome-tigecycline complex; assay type: binding, human; conditions: 30 µM
Experimental: Jurkat T cells were grown in RPM1-1640 medium ( + 10% FBS, 2.05 mM L-glutamine (Sigma), and 55 μM 2-ME (Gibco)) in a vented flask shaking at 120 rpm at 37 °C under 5% CO2. The culture was scaled up by splitting at a cell density of 1.6 × 10^6 cells/ml. A final volume of 1.5-liter cells at a density of 1 × 10^6 cells/ml was harvested by centrifugation at 1000 x g for 10 min at 4 °C. After being washed with cold PBS buffer, the cell pellet was resuspended in the cold hypotonic MSE buffer (with 0.6 M mannitol, 10 mM Tris–HCl pH 7.4, 1 mM EDTA, 0.1% BSA), and ruptured on ice by a semi-automatic homogenizer (Schuett-biotech). The lysate was clarified by centrifugation at 400 x g and 4 °C for 10 min. The pellet was resuspended and subsequently homogenized. After 3 cycles of homogenization-centrifugation, the cell lysates were combined and the mitochondria were pelleted by additional centrifugation at 11,000 x g and 4 °C for 10 min. […]
The purified mitochondria were thawed and lysed by incubating at 4 °C for 30 min in the lysis buffer (25 mM HEPES–KOH pH 7.5, 20 mM Mg(OAc)2, 50 mM KCl, 2% (vol/vol) Triton X-100, 2 mM Dithiothreitol (DTT), 1× cOmplete EDTA-free protease inhibitor cocktail (Roche), 40 U/μl RNase inhibitor (Invitrogen)). […] The concentration of the purified monosomes was quantified by nanodrop. […]

[2] = test system: mitochondrial translation in CD4+ and CD8+ T cells; assay: Mito-FUNCAT-FACS assay of mitochondrial translation on activated T cells; assay type: cell-based, human; conditions: for mitochondrial translation (fold change relative to negative control): per PBMC donor
Experimental: Thawed PBMCs were washed with RPMI ( + 10% FBS, 2.05 mM L-glutamine (Sigma), and 55 μM 2-ME (Gibco)) before resting at 37 °C (5% CO2) for 30 min. After counting, cells were resuspended in FACS buffer at a density of 5 × 10^7 cells/ml. T cells were isolated using EasySep™ Human T Cell Isolation Kit (Stemcell Technologies). Purified T cells were counted and 85,000 cells per well seeded onto 96-well U-bottom plates with/without Human T-Activator CD3/CD28 beads (Invitrogen) at a 1:2.8 cell:bead ratio and 10 ng/ml IL-2 (Proteintech) in RPMI-1640 ( + 10% FBS, 2.05 mM L-glutamine (Sigma), and 55 μM 2-ME (Gibco)) for 48 h. To assess mitochondrial translation, activated T cells were washed twice with methionine/cysteine/pyruvate-free DMEM and incubated in methionine-depletion medium (DMEM supplemented with 10% dialyzed FBS, 1× GlutaMAX, 1× sodium pyruvate, and 0.2 mM L-cystine) for 30 min at 37 °C. To inhibit cytosolic translation, anisomycin (100 μg/mL) was added to the medium. For mitochondrial translation inhibition, 100 µg/mL chloramphenicol (309 μM, positive control) or tigecycline (2.5−10 μM) were added to the medium. Cells were then labeled with 50 μM L-homopropargylglycine (HPG) for 3 h at 37 °C, during which time the medium still contained antibiotics.
Following HPG labeling, cells were collected and stained with surface markers (CD4, CD8). Cells were pre-permeabilized with 0.005% digitonin in mitochondria-protective buffer (10 mM HEPES/KOH, 10 mM NaCl, 5 mM MgCl2, 300 mM sucrose, pH 7.5) for 3 min, fixed with 4% paraformaldehyde for 10 min, and fully permeabilized with 0.25% Triton X-100 for 5 min. After blocking with 5% BSA for 10 min, incorporated HPG was detected via copper-catalyzed cycloaddition using 0.05 μM Alexa Fluor 488 picolyl azide (Click-iT™ Plus Alexa Fluor™ 488 Picolyl Azide Toolkit, Gibco) for 30 min at room temperature. Subsequently, the reaction cocktail was removed and cells resuspended in FACS buffer. Flow cytometry was carried out on a BD Celesta (BD Biosciences) and analyzed in FlowJo (TreeStar). Data are presented as fold change relative to negative controls.

CN(C)c1cc(NC(=O)CNC(C)(C)C)c(O)c2c1C[C@H]1C[C@H]3[C@H](N(C)C)C(O)=C(C(N)=O)C(=O)[C@@]3(O)C(O)=C1C2=O [Tigecycline, tigecycline]
occupancy on the mitoribosome ([1]; mtSSU and mtLSU site-1, P-site-only class): exceeding 80% | binding sites on the mitoribosome ([1]; one on the mtSSU, two on the mtLSU): three densities corresponding to tigecycline molecules | mitochondrial translation (fold change relative to negative control) ([2]; CD4, 2.5µM): 0.947 and 0.7157 and 0.7389 | mitochondrial translation (fold change relative to negative control) ([2]; CD4, 5µM): 0.8077 and 0.645 and 0.697 | mitochondrial translation (fold change relative to negative control) ([2]; CD4, 10µM): 0.7443 and 0.3992 and 0.6483 and 0.5621 | mitochondrial translation (fold change relative to negative control) ([2]; CD8, 2.5µM): 0.9388 and 0.7432 and 0.8324 | mitochondrial translation (fold change relative to negative control) ([2]; CD8, 5µM): 0.8134 and 0.656 and 0.7756 | mitochondrial translation (fold change relative to negative control) ([2]; CD8, 10µM): 0.7567 and 0.4193 and 0.7571 and 0.5029 | inhibition of mitochondrial translation ([2]; TCR-stimulated CD4+ and CD8+ T cells, 2.5-10 μM): dose-dependent inhibition of mitochondrial translation
